Experimental findings from article PMC13489962, “Small-molecule modulation of β-arrestins” (Nature, 2026) are described below.

The Kd is the concentration at which binding is half-saturated. A high value points to a looser complex.

For the experiment, the target named is T1, βARR1 L129G (Rattus norvegicus, UniProt P29066, L129G).
T1 construct: βARR1 or βARR2 construct, with their C terminus truncated (at amino acid 393 or 394, respectively); GST (pGEX4T1) (N, cleaved yes); made in house; host or cells: E. coli BL21 (DE3) pLysS
Description: ITC binding to βARR1 mutant L129G. The note with it: 25 °C. The protocol:
The expression and purification of β-arrestins have been described previously[44],[62]–[64]. In brief, E. coli BL21 (DE3) pLysS cells (New England Biolabs: C2527I) carrying pGEX4T1-Rattus norvegicus βARR1 or βARR2 construct, with their C terminus truncated (at amino acid 393 or 394, respectively), were cultured in Terrific Broth (Teknova) medium at 37 °C. After OD600 reached 0.6–0.8, the cells were induced with 0.1 mM isopropyl-β-D-thiogalactopyranoside (IPTG) at 18 °C overnight. Bacteria were collected by centrifugation (4,000 rpm), and cell pellets were resuspended in lysis buffer (20 mM HEPES, pH 8, 150 mM NaCl, 10% glycerol, 1 mM EDTA, 0.2 mM dithiothreitol (DTT), 1 mM phenylmethylsulfonyl fluoride, and 1 mM benzamidine) at 4 °C for 1 h. […] Eluted fractions were analysed by SDS–PAGE, pooled, concentrated using 30 kDa MWCO Amicon Ultra-15 Centrifugal Filter devices, flash-frozen in liquid nitrogen, and stored in aliquots at −80 °C. […] Protein concentrations for each protein were determined by ultraviolet absorption at 280 nm and extinction coefficients estimated using the ExPASy ProtParam tool[67].
ITC measurements were performed on a MicroCal iTC200 system at 25 °C. […] Protein concentrations were determined by spectrophotometry at 280 nm, using extinction coefficients calculated from each protein sequence via the ProtParam program. […]

T1 sequence (P29066 1-393 L129G): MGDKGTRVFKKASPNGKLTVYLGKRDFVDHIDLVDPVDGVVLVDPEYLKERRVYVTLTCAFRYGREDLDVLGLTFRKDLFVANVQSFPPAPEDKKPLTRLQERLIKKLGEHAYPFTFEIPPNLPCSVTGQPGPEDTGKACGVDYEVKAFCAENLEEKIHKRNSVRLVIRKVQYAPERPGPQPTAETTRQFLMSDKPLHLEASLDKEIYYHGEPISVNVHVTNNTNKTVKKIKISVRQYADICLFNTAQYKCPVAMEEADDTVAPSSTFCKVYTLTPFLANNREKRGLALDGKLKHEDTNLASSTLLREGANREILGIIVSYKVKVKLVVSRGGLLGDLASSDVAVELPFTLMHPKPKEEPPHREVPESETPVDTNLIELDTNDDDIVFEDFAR

Consider `C=C1C(=O)[C@]23[C@H](O)[C@H]1CC[C@H]2[C@@]12CO[C@]3(O)[C@@H](O)[C@@H]1C(C)(C)CC[C@@H]2O` [Cmpd-5, (1S,4aR,5S,6S,6aR,9S,11aS,11bS,14R)-1,5,6,14-tetrahydroxy−4,4-dimethyl-8-methylenedecahydro-1H-6,11b-(epoxymethano)-6a,9-methanocyclohepta[a]naphthalen-7(8H)-one], for which the dissociation constant Kd was found to be 2 ± 0.7 µM.
